Measured values: US5502214A, “1,2-benzoquinones and methods for making and using same” (priority 1993, dated 1996)
Read-outs that look alike come from different tables or passages of the source.

Assays:
L1210 leukemia = experiment: In vivo antitumor test, L1210 leukemia implanted i.p. in DBA mice; settings: for SURVIVAL: lifespan post tumor cell inoculation; for % ILS: vs untreated controls
Experimental: L1210 leukemia (10^6) cells were implanted intraperitoneally in DBA mice (Taconic Farms, Germantown, N.Y.) on day 0. Treatment with each drug was carried out daily for 5 days. The drugs were administered intraperitoneally at the doses shown on Table II below. Each treatment group had six animals and the experiment was carried out twice. The percent increase-in-lifespan (% ILS) is for the treated subjects compared with the untreated controls.
^a Drugs were administered i.p. daily on days 1-5.
^b Lifespan of the animals post tumor cell innoculation.

[1] = system: EMT-6 mouse mammary tumor cells; experiment: In vitro cytotoxicity screen (colony formation); format: cell-based; settings: 1 hour drug exposure at 37° C., EMT-6 colony formation
Experimental: Cell Line and Culture. The cell line used in the screen was EMT-6 mouse mammary tumor cells in culture that were maintained in exponential growth in Waymouth's medium (I.S.I. Corp., Chicago, Ill.), supplemented with 15% newborn calf serum, penicillin (100 units/ml), and streptomycin (100 μg/ml) (Grand Island Biological Co., Grand Island, N.Y.). The doubling time of these cultures, growing at 37° C. in a 5% CO2 /95% air atmosphere, was 16-19 hours. In vitro plating efficiencies of control cultures were 65-80%.
Production of Hypoxia. To produce hypoxia, plastic flasks, containing exponentially growing monolayers of tumor cells in complete medium plus serum, were fitted with sterile rubber septums and exposed to a continuously flowing 95% N2 /5% CO2 humidified atmosphere for 4 hours at 37° C. as described by B. A. Teicher et al., Int. J. Radiat. Oncol. Biol. Phy., 11:937-940 (1985); and B. A. Teicher et al., Cancer Res., 41:73-81 (1981). Parallel flasks were maintained in 95% air/5% CO2. At the end of 4 hours, the drug specified in Table I below was added to the flasks by injection through the rubber septum without disturbing the hypoxia. […]
Drug Treatments. Exponentially growing cells were exposed to varying concentrations of the drugs specified in Table I below for 1 hour at 37° C. Non-drug-treated controls were handled identically. Drugs were prepared in sterile phosphate-buffered saline immediately before use and added to the cells in a small volume (50-100 μl). […] After treatment, the medium was removed, and the cultures were washed twice with phosphate buffered saline and suspended by trypsinization.
Cell Viability Measurements. Cell viability was measured by the ability of single cells to form colonies in vitro, as described by B. A. Teicher et al., Int. J. Radiat. Oncol. Biol. Phys., 11:937-940 (1985); and B. A. Teicher et al., Cancer Res., 41:73-81 (1981). Following treatment, suspensions of known cell numbers were plated in plastic Petri dishes and allowed to grow in a 37° C. incubator under standard culture conditions for 8-10 days. After this time interval, macroscopic colonies were stained with crystal violet in methanol containing 3.7% formaldehyde and were counted manually. Each experiment was repeated 3 times and each data point per experiment represents the results of 3 different dilutions of cells plated in triplicate.

[2] = 1.00 mg/kg i.p. daily on days 1-5
[3] = 2.50 mg/kg i.p. daily on days 1-5
[4] = 5.00 mg/kg i.p. daily on days 1-5
[5] = 10.00 mg/kg i.p. daily on days 1-5
[6] = Mus musculus, EMT6, 1 h, Hypoxia, read-out: IC50
[7] = Mus musculus, EMT6, 1 h, Normal oxygenation, read-out: IC50
[8] = Mus musculus, EMT6, Normal oxygenation, read-out: IC90
[9] = 0.50 mg/kg i.p. daily on days 1-5
[10] = 1.25 mg/kg i.p. daily on days 1-5
[11] = 1.50 mg/kg i.p. daily on days 1-5
[12] = 2.00 mg/kg i.p. daily on days 1-5
[13] = Mus musculus, EMT6, 1 h, Hypoxia
[14] = Mus musculus, EMT6, 1 h, Normal oxygenation

Compound	SURVIVAL (L1210 leukemia; [2])	% ILS (L1210 leukemia; [2])	SURVIVAL (L1210 leukemia; [3])	% ILS (L1210 leukemia; [3])	SURVIVAL (L1210 leukemia; [4])	% ILS (L1210 leukemia; [4])	SURVIVAL (L1210 leukemia; [5])	% ILS (L1210 leukemia; [5])	IC90 ([1]; Hypoxia, read-out: IC90)	IC50 [1, 6]	IC50 [1, 7]	IC90 [1, 8]	further results
O=C1C=C(N2CCC2)C(N2CCC2)=CC1=O [4,5-Azetidinyl-1,2-Benzoquinone, 4,5-azetidinyl-1,2-benzoquinone]	8.0 days	8%	7.8 days	5%	7.8 days	5%	6.4 days	toxic	> 500 µM	400 µM	500 µM	> 500 µM	–
O=C1C=C(N2CC2)C(N2CC2)=CC1=O [4,5-Aziridinyl-1,2-Benzoquinone, 4,5-aziridinyl-1,2-benzoquinone]	13.4 days	81%	6.0 days	toxic	–	–	–	–	–	–	–	–	SURVIVAL (L1210 leukemia; [9]): 12.6 days; % ILS (L1210 leukemia; [9]): 70%; SURVIVAL (L1210 leukemia; [10]): 13.6 days; % ILS (L1210 leukemia; [10]): 84%; SURVIVAL (L1210 leukemia; [11]): 13.8 days; % ILS (L1210 leukemia; [11]): 86%; SURVIVAL (L1210 leukemia; [12]): 11.8 days; % ILS (L1210 leukemia; [12]): 59%; IC50 [1, 13]: 0.2 µM; IC90 [1, 13]: 1 µM; IC50 [1, 14]: 0.4 µM; IC90 [1, 14]: 1.1 µM
COC1=CC(=O)C(=O)C=C1OC [4,5-Methoxy-1,2-Benzoquinone, 4,5-Dimethoxy-1,2-benzoquinone, reference compound]	–	–	–	–	–	–	–	–	> 500 µM	> 500 µM	500 µM	> 500 µM	–
O=C1C=C(N2CCCC2)C(N2CCCC2)=CC1=O [4,5-Pyrrolidinyl-1,2-Benzoquinone, 4,5-pyrrolidinyl-1,2-benzoquinone]	8.0 days	8%	8.0 days	8%	7.6 days	3%	6.3 days	toxic	> 500 µM	> 500 µM	> 500 µM	> 500 µM	–
CCN(CC)C1=CC(=O)C(=O)C=C1N(CC)CC [4,5-bis-(Diethylamino)-1,2-Benzoquinone, 4,5-bis-(diethylamino)-1,2-benzoquinone]	7.8 days	5%	8.4 days	14%	8.6 days	16%	7.8 days	5%	> 500 µM	400 µM	500 µM	> 500 µM	–
COC1=CC(=O)C(=O)C=C1NCCCl [4-chloroethylamino-5-methoxy-1,2-benzoquinone]	–	–	–	–	–	–	–	–	–	–	–	–	IC50 [1, 13]: 110 µM; IC90 [1, 13]: 190 µM; IC50 [1, 14]: 125 µM; IC90 [1, 14]: 455 µM
CCOC(=O)NC1=C(N2CC2)C(=O)C(NC(=O)OCC)=C(N2CC2)C1=O [AZQ, 3,6-bis(ethylcarboxyamino)-2,5-diaziridinyl-1,4-benzoquinone, reference compound]	–	–	–	–	–	–	–	–	–	7.5 µM	5 µM	–	IC90 ([1]; Mus musculus, EMT6, 1 h, Hypoxia, read-out: IC90): 17.5 µM; IC90 ([1]; Mus musculus, EMT6, 1 h, Normal oxygenation, read-out: IC90): 15.5 µM
